# Laboratory results: patent US20250326794A1, “ANTI-CANCER LEUCINE-RICH PEPTIDES AND USES THEREOF” (KING'S COLLEGE LONDON, priority 2019, published 2025)
# Like-named read-outs stand apart in the source and are kept apart here.
# Assays:
# [1] = system: U2OS (human bone osteosarcoma)
# Summary of the method: (§1)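 MTT viability after 72 h exposure to 0–100 μM compound (final DMSO 0.5% or 0%), 5×10^3 cells/well; HMLER lines and MCF-10A in MEGM, U2OS in DMEM with 10% FBS. A550 normalized to matching vehicle controls; IC50 interpolated from dose–response curves.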
# [2] = ANTS/DPX liposome leakage assay, 3POPC/1POPG vesicles; format: biochemical; conditions: 0.5 mM vesicles; for Peptide Concentration-induced 50% ANTS/DPX leakage at pH 4.8, 3POPC/1POPG Vesicle: pH 4.8, lipid per peptide; for Peptide Concentration-induced 50% ANTS/DPX leakage at pH 7.4, 3POPC/1POPG Vesicle: pH 7.4, lipid per peptide
# Summary of the method: (§2)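 LUVs (100 nm extruded) of POPC or POPC:POPG 3:1, loaded with 5 mM ANTS/12.5 mM DPX, used at 0.5 mM lipid with peptide 0–20 μM in PBS pH 7.4 or HCl-adjusted PBS pH 4.8. Leakage read after 3 h (ex 350/em 510 nm) against 10% Triton maximum; 50% leakage expressed as lipid per peptide.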
# [3] = ANTS/DPX liposome leakage assay, POPC vesicles; format: biochemical; conditions: 0.5 mM vesicles; for Peptide Concentration-induced 50% ANTS/DPX leakage at pH 4.8, POPC Vesicle: pH 4.8, lipid per peptide; for Peptide Concentration-induced 50% ANTS/DPX leakage at pH 7.4, POPC Vesicle: pH 7.4, lipid per peptide
# Summary of the method: as §2
# [4] = Tryptophan fluorescent binding assay, POPC vesicles; conditions: 50 μM peptide, PBS pH 7.4, lipid per peptide
# Summary of the method: (§3)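 Peptide fixed at 50 μM, titrated with POPC or 3POPC/1POPG large unilamellar vesicles (100 nm extruded; 0-5000 μM lipid) in PBS pH 7.4. Tryptophan fluorescence (ex 280, em 300-450 nm) read after 60 min; lipid concentration giving 50% binding reported as lipid/peptide ratio.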
# [5] = system: HMLER (human breast cancer bulk cell); assay: cells
# Summary of the method: as §1
# [6] = system: HEK293T (human embryonic kidney cell); assay: cells
# [7] = system: HMLER-shEcad (human breast cancer stem cell); assay: cells
# Summary of the method: as §1
# [8] = Tryptophan fluorescent binding assay, 3POPC/1POPG vesicles; conditions: 50 μM peptide, PBS pH 7.4, lipid per peptide
# Summary of the method: as §3
Compound,"IC50 ([1]; read-out: IC50 U20S, MTT, 72 hr)","Peptide Concentration-induced 50% ANTS/DPX leakage at pH 4.8, 3POPC/1POPG Vesicle [2]","Peptide Concentration-induced 50% ANTS/DPX leakage at pH 7.4, 3POPC/1POPG Vesicle [2]","Peptide Concentration-induced 50% ANTS/DPX leakage at pH 4.8, POPC Vesicle [3]","Peptide Concentration-induced 50% ANTS/DPX leakage at pH 7.4, POPC Vesicle [3]","Lipid Concentration-induced 50% Peptide Binding, POPC Vesicle [4]","IC50 ([5]; read-out: IC50 HMLER, MTT, 72 hr)","IC50 ([6]; read-out: IC50 HEK293T, MTT, 72 hr)","IC50 ([7]; read-out: IC50 HMLER-shEcad, MTT, 72 hr)","Lipid Concentration-induced 50% Peptide Binding, 3POPC/1POPG Vesicle [8]",IC50 ([1]; 72 h),IC50 ([5]; 72 h),IC50 ([6]; 72 h),IC50 ([7]; 72 h)
CC(C)C[C@H](NC(=O)CN)C(=O)N[C@@H](CC(C)C)C(=O)N[C@@H](CC(=O)O)C(=O)N[C@@H](CC(C)C)C(=O)N[C@@H](CC(C)C)C(=O)N[C@@H](Cc1c[nH]cn1)C(=O)N[C@@H](CC(C)C)C(=O)N[C@@H](CC(C)C)C(=O)N[C@@H](CC(C)C)C(=O)N[C@@H](CCCCN)C(=O)N[C@@H](C)C(=O)N[C@@H](C)C(=O)NCC(=O)N[C@@H](Cc1c[nH]c2ccccc12)C(N)=O [DHK],20.4 ± 2.05 µM,183 L/P,469 L/P,47 L/P,747 L/P,0.20 L/P,1.75 ± 0.49 µM,7.3 ± 0.42 µM,1.02 ± 0.12 µM,0.38 L/P,,,,
CC(C)C[C@H](NC(=O)CN)C(=O)N[C@@H](CC(C)C)C(=O)N[C@@H](Cc1c[nH]cn1)C(=O)N[C@@H](CC(C)C)C(=O)N[C@@H](CC(C)C)C(=O)N[C@@H](CCCCN)C(=O)N[C@@H](CC(C)C)C(=O)N[C@@H](CC(C)C)C(=O)N[C@@H](CC(C)C)C(=O)N[C@@H](CCC(=O)O)C(=O)N[C@@H](C)C(=O)N[C@@H](C)C(=O)NCC(=O)N[C@@H](Cc1c[nH]c2ccccc12)C(N)=O [HKE],,94 L/P,365 L/P,173 L/P,692 L/P,0.75 L/P,,,,0.25 L/P,16 ± 0.78 µM,2.7 ± 0.28 µM,5.15 ± 0.64 µM,1.9 ± 0.42 µM
CC(C)C[C@H](NC(=O)CN)C(=O)N[C@@H](CC(C)C)C(=O)N[C@@H](CCCCN)C(=O)N[C@@H](CC(C)C)C(=O)N[C@@H](CC(C)C)C(=O)N[C@@H](CCCCN)C(=O)N[C@@H](CC(C)C)C(=O)N[C@@H](CC(C)C)C(=O)N[C@@H](CC(C)C)C(=O)N[C@@H](CCCCN)C(=O)N[C@@H](C)C(=O)N[C@@H](C)C(=O)NCC(=O)N[C@@H](Cc1c[nH]c2ccccc12)C(N)=O [KKK],,81 L/P,115 L/P,156 L/P,1369 L/P,1.25 L/P,,,,1.70 L/P,9.65 ± 1.2 µM,1.57 ± 0.24 µM,3.7 ± 0.14 µM,1.35 ± 0.4 µM
CC(C)C[C@H](NC(=O)CN)C(=O)N[C@@H](CC(C)C)C(=O)N[C@@H](CCCCN)C(=O)N[C@@H](CC(C)C)C(=O)N[C@@H](CC(C)C)C(=O)N[C@@H](Cc1c[nH]cn1)C(=O)N[C@@H](CC(C)C)C(=O)N[C@@H](CC(C)C)C(=O)N[C@@H](CC(C)C)C(=O)N[C@@H](Cc1c[nH]cn1)C(=O)N[C@@H](C)C(=O)N[C@@H](C)C(=O)NCC(=O)N[C@@H](Cc1c[nH]c2ccccc12)C(N)=O [KHH],,48 L/P,329 L/P,227 L/P,1153 L/P,3.50 L/P,,,,0.94 L/P,39.8 ± 5.3 µM,5.2 ± 0.71 µM,7.75 ± 0.78 µM,4.45 ± 0.49 µM
CC(C)C[C@H](NC(=O)CN)C(=O)N[C@@H](CC(C)C)C(=O)N[C@@H](CCC(=O)O)C(=O)N[C@@H](CC(C)C)C(=O)N[C@@H](CC(C)C)C(=O)N[C@@H](CCCCN)C(=O)N[C@@H](CC(C)C)C(=O)N[C@@H](CC(C)C)C(=O)N[C@@H](CC(C)C)C(=O)N[C@@H](CCCCN)C(=O)N[C@@H](C)C(=O)N[C@@H](C)C(=O)NCC(=O)N[C@@H](Cc1c[nH]c2ccccc12)C(N)=O [EKK],,219 L/P,235 L/P,60 L/P,1095 L/P,1.50 L/P,,,,0.63 L/P,12.2 ± 1.84 µM,1.72 ± 0.21 µM,3.35 ± 0.49 µM,1.19 ± 0.4 µM
CC(C)C[C@H](NC(=O)CN)C(=O)N[C@@H](CC(C)C)C(=O)N[C@@H](CC(=O)O)C(=O)N[C@@H](CC(C)C)C(=O)N[C@@H](CC(C)C)C(=O)N[C@@H](CCCCN)C(=O)N[C@@H](CC(C)C)C(=O)N[C@@H](CC(C)C)C(=O)N[C@@H](CC(C)C)C(=O)N[C@@H](CCC(=O)O)C(=O)N[C@@H](C)C(=O)N[C@@H](C)C(=O)NCC(=O)N[C@@H](Cc1c[nH]c2ccccc12)C(N)=O [DKE],,469 L/P,411 L/P,21 L/P,747 L/P,0.56 L/P,,,,0.46 L/P,9.93 ± 0.25 µM,2.1 µM,7.8 ± 1.41 µM,1.57 ± 0.33 µM
CC(C)C[C@H](NC(=O)CN)C(=O)N[C@@H](CC(C)C)C(=O)N[C@@H](CCCCN)C(=O)N[C@@H](CC(C)C)C(=O)N[C@@H](CC(C)C)C(=O)N[C@@H](CCCCN)C(=O)N[C@@H](CC(C)C)C(=O)N[C@@H](CC(C)C)C(=O)N[C@@H](CC(C)C)C(=O)N[C@@H](Cc1c[nH]cn1)C(=O)N[C@@H](C)C(=O)N[C@@H](C)C(=O)NCC(=O)N[C@@H](Cc1c[nH]c2ccccc12)C(N)=O [KKH],,49 L/P,227 L/P,164 L/P,2119 L/P,0.83 L/P,,,,0.48 L/P,13.3 ± 0.99 µM,2.4 ± 0.85 µM,4 ± 0.28 µM,2.2 ± 0.42 µM
CC(C)C[C@H](NC(=O)CN)C(=O)N[C@@H](CC(C)C)C(=O)N[C@@H](Cc1c[nH]cn1)C(=O)N[C@@H](CC(C)C)C(=O)N[C@@H](CC(C)C)C(=O)N[C@@H](CCC(=O)O)C(=O)N[C@@H](CC(C)C)C(=O)N[C@@H](CC(C)C)C(=O)N[C@@H](CC(C)C)C(=O)N[C@@H](Cc1c[nH]cn1)C(=O)N[C@@H](C)C(=O)N[C@@H](C)C(=O)NCC(=O)N[C@@H](Cc1c[nH]c2ccccc12)C(N)=O [HEH],,24 L/P,505 L/P,173 L/P,995 L/P,0.88 L/P,,,,3.50 L/P,106 ± 14 µM,28.6 ± 10.8 µM,8.8 ± 1.7 µM,11 ± 1.06 µM
